# Experimental data as given in patent publication US4126616A, “N-propylnorapomorphine diesters” (Hinshaw; William B., priority 1976, dated 1978).
# Structures can show the parent of a compound that is named as a salt. Where two headings read alike, the source gives them in different places.
# System: caudate lesioned mouse
# Assay: caudate lesioned mouse test (anti-parkinson activity)
# Format: in vivo
# Details: for responders at 5.2 µmol/kg / responders at 26 µmol/kg / responders at 52 µmol/kg / responders at 132 µmol/kg / responders at 1.6 µmol/kg / responders at 3.2 µmol/kg / responders at 6 µmol/kg / responders at 208 µmol/kg: Mus musculus; for responders at 5.2 µmol/kg: dose 0.0052 m. mole/kg; for responders at 26 µmol/kg: dose 0.026 m. mole/kg; for responders at 52 µmol/kg: dose 0.052 m. mole/kg; for responders at 132 µmol/kg: dose 0.132 m. mole/kg; for responders at 1.6 µmol/kg: dose 0.0016 m. mole/kg; for responders at 3.2 µmol/kg: dose 0.0032 m. mole/kg; for responders at 6 µmol/kg: dose 0.006 m. mole/kg
# Description: An index of anti-parkinson activity was determined using the caudate lesioned mouse test described by Lotti, Life Sci., 10, 781-789 (1971). The mice having unilateral lesions of the caudate nucleus prepared according to the method of Lotti supra were observed immediately after the surgical procedure for strong postural asymmetries directed to the same side as the lesion. When this asymmetry was not observed, the mice were discarded. Operated mice were allowed at least 14 days to recover prior to drug testing. The lesioned mice were tested with apomorphine using 1.7 mg./kg. of base administered intraperitoneally in a 1% suspension in gum tragacanth. […] Only those mice which twisted or circled toward the lesioned side in all three test periods after the apomorphine injection were retained for further drug testing. The test drugs were all administered in 1% gum tragacanth suspension in a volume of 0.1 ml./10 g. of body weight. Doses were expressed in mg./kg. of free base.
# Results of tests in the caudate lesioned mouse test described above which were obtained on the compounds of the invention are given in the table below identified, in each case, by the example numbers above where their preparations are described. Corresponding data for reference apomorphine diesters described in German patent application No. 2,154,162 are given in a side-by-side relationship for a number of the species. The reference compounds, designated Ref. 1, Ref. 1B, Ref. 1C, Ref. 1D, Ref. 1E, Ref. 1F, Ref. 2 and Ref. 2A correspond, respectively, to the compounds of the invention identified by Examples 1, 1B, 1C, 1D, 1E, 1F, 2 and 2A and differ from the latter only in having a methyl group on the apomorphine nitrogen from instead of an n-propyl group as present in the instant compounds.
# [1] = 0.5 h, 1/2 h post-drug, read-out: No. Mice Affected/No. Mice Tested, 1/2 h
# [2] = 0.5 h, 1/2 h post-drug, read-out: No. Mice Affected/No. Mice Tested, 1/2 h (converted)
# [3] = 1 h post-drug, read-out: No. Mice Affected/No. Mice Tested, 1 h
# [4] = 2 h post-drug, read-out: No. Mice Affected/No. Mice Tested, 2 h
# [5] = 4 h post-drug, read-out: No. Mice Affected/No. Mice Tested, 4 h
# [6] = 6 h post-drug, read-out: No. Mice Affected/No. Mice Tested, 6 h
# [7] = 24 h post-drug, read-out: No. Mice Affected/No. Mice Tested, 24 h
# [8] = total, read-out: No. Mice Affected/No. Mice Tested, Total
# [9] = 1 h post-drug, read-out: No. Mice Affected/No. Mice Tested, 1 h (converted)
# [10] = 2 h post-drug, read-out: No. Mice Affected/No. Mice Tested, 2 h (converted)
# [11] = 4 h post-drug, read-out: No. Mice Affected/No. Mice Tested, 4 h (converted)
# [12] = 6 h post-drug, read-out: No. Mice Affected/No. Mice Tested, 6 h (converted)
# [13] = total, read-out: No. Mice Affected/No. Mice Tested, Total (converted)
# [14] = 24 h post-drug, read-out: No. Mice Affected/No. Mice Tested, 24 h (converted)
smiles,measurement,setting,value
"CCCN1CCc2cccc3c2C1Cc1ccc(OC(=O)c2cc(OC)c(OC)c(OC)c2)c(OC(=O)c2cc(OC)c(OC)c(OC)c2)c1-3 (stereo not shown) [Ex. 1L, N-Propylnorapomorphine bis-3,4,5-trimethoxybenzoate hydrochloride]",ED50,"ED50, caudate lesioned mouse, read-out: ED50",15 µmol/kg
same,responders at 5.2 µmol/kg,[1],0%
same,responders at 26 µmol/kg,[2],75%
same,responders at 5.2 µmol/kg,[3],0%
same,responders at 5.2 µmol/kg,[4],0%
same,responders at 5.2 µmol/kg,[5],0%
same,responders at 5.2 µmol/kg,[6],0%
same,responders at 5.2 µmol/kg,[7],0%
same,responders at 5.2 µmol/kg,[8],0%
same,responders at 26 µmol/kg,[9],75%
same,responders at 26 µmol/kg,[10],100%
same,responders at 26 µmol/kg,[11],100%
same,responders at 26 µmol/kg,[12],100%
same,responders at 26 µmol/kg,[7],0%
same,responders at 26 µmol/kg,[13],100%
"CCCCCCCCCCCCCCCC(=O)Oc1ccc2c(c1OC(=O)CCCCCCCCCCCCCCC)-c1cccc3c1C(C2)N(CCC)CC3 (stereo not shown) [Ex. ID, N-Propylnorapomorphine dihexadecanoate]",responders at 52 µmol/kg,[2],0%
same,responders at 132 µmol/kg,[2],0%
same,responders at 52 µmol/kg,[9],0%
same,responders at 52 µmol/kg,[11],25%
same,responders at 52 µmol/kg,[12],25%
same,responders at 52 µmol/kg,[7],0%
same,responders at 52 µmol/kg,[13],25%
same,responders at 132 µmol/kg,[9],0%
same,responders at 132 µmol/kg,[11],100%
same,responders at 132 µmol/kg,[12],0%
same,responders at 132 µmol/kg,[14],33.3%
same,responders at 132 µmol/kg,[13],100%
same,Molar Potency Ratio Claimed/Ref. Ester,claimed N-propyl ester vs corresponding N-methyl reference ester,≥ 8
"CCCN1CCc2cccc3c2C1Cc1ccc(OC(=O)c2cc(OC)cc(OC)c2)c(OC(=O)c2cc(OC)cc(OC)c2)c1-3 (stereo not shown) [Ex. 1K, N-Propylnorapomorphine bis-3,5-dimethoxybenzoate hydrochloride]",responders at 1.6 µmol/kg,[1],0%
same,responders at 3.2 µmol/kg,[1],0%
same,responders at 6 µmol/kg,[1],0%
same,responders at 26 µmol/kg,[2],50%
same,responders at 1.6 µmol/kg,[3],0%
same,responders at 1.6 µmol/kg,[4],0%
same,responders at 1.6 µmol/kg,[5],0%
same,responders at 1.6 µmol/kg,[6],0%
same,responders at 1.6 µmol/kg,[7],0%
same,responders at 1.6 µmol/kg,[8],0%
same,responders at 3.2 µmol/kg,[9],25%
same,responders at 3.2 µmol/kg,[10],50%
same,responders at 3.2 µmol/kg,[11],50%
same,responders at 3.2 µmol/kg,[6],0%
same,responders at 3.2 µmol/kg,[7],0%
same,responders at 3.2 µmol/kg,[13],50%
same,responders at 6 µmol/kg,[3],0%
same,responders at 6 µmol/kg,[10],75%
same,responders at 6 µmol/kg,[11],75%
same,responders at 6 µmol/kg,[12],50%
same,responders at 6 µmol/kg,[7],0%
same,responders at 6 µmol/kg,[13],75%
same,responders at 26 µmol/kg,[9],100%
same,responders at 26 µmol/kg,[10],50%
same,responders at 26 µmol/kg,[11],50%
same,responders at 26 µmol/kg,[12],50%
same,responders at 26 µmol/kg,[7],0%
same,responders at 26 µmol/kg,[13],100%
"CC(C)C(=O)Oc1ccc2c(c1OC(=O)C(C)C)-c1cccc3c1C(C2)N(C)CC3 (stereo not shown) [Ref. 1B, reference compound]",responders at 208 µmol/kg,"0.5 h, read-out: No. Mice Affected/No. Mice Tested, 1/2 h",0%
same,responders at 208 µmol/kg,"1 h, read-out: No. Mice Affected/No. Mice Tested, 1 h",0%
same,responders at 208 µmol/kg,"4 h, read-out: No. Mice Affected/No. Mice Tested, 4 h",25%
same,responders at 208 µmol/kg,"6 h, read-out: No. Mice Affected/No. Mice Tested, 6 h",0%
same,responders at 208 µmol/kg,"24 h, read-out: No. Mice Affected/No. Mice Tested, 24 h",0%
same,responders at 208 µmol/kg,"read-out: No. Mice Affected/No. Mice Tested, Total",25%
"CCCC(=O)Oc1ccc2c(c1OC(=O)CCC)-c1cccc3c1C(C2)N(CCC)CC3 (stereo not shown) [Ex. 1A, N-Propylnorapomorphine dibutanoate]",responders at 26 µmol/kg,[2],0%
same,responders at 132 µmol/kg,[2],50%
same,responders at 26 µmol/kg,[9],0%
same,responders at 26 µmol/kg,[10],0%
same,responders at 26 µmol/kg,[11],0%
same,responders at 26 µmol/kg,[12],0%
same,responders at 26 µmol/kg,[7],0%
same,responders at 26 µmol/kg,[13],0%
same,responders at 132 µmol/kg,[9],100%
same,responders at 132 µmol/kg,[10],100%
same,responders at 132 µmol/kg,[11],100%
same,responders at 132 µmol/kg,[12],100%
same,responders at 132 µmol/kg,[14],100%
same,responders at 132 µmol/kg,[13],100%
